Test system: HUVEC/MSC spheroids viability
Test: Human HUVEC/MSC cell line growth inhibition [KRAS2];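 on viability, T/C: percent of DMSO vehicle control luminescence so 100% = untreated viability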
Conditions: for IC50: curve of first compound; for viability, T/C: stronger effect = lower value
Method in brief: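 Stroma-only multicellular spheroids, formed from HUVEC and human MSCs at passages </=5, received RAS-pathway inhibitors with or without a second targeted drug. Dosing followed half-log dilutions from clinically achievable levels.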

[1] = second compound 0.00949 µM, first compound 0.0316 µM
[2] = second compound 0.00949 µM, first compound 0.1 µM
[3] = second compound 0.03 µM, first compound 0.0316 µM
[4] = second compound 0.03 µM, first compound 0.1 µM
[5] = second compound 0.0949 µM, first compound 0.0316 µM
[6] = second compound 0.0949 µM, first compound 0.1 µM
[7] = second compound 0.3 µM, first compound 0.0316 µM
[8] = second compound 0.3 µM, first compound 0.1 µM
[9] = second compound 0.949 µM, first compound 0.0316 µM
[10] = second compound 0.949 µM, first compound 0.1 µM
[11] = second compound 3 µM, first compound 0.0316 µM
[12] = second compound 3 µM, first compound 0.1 µM

With `CC(C)NCC(C(=O)N1CCN(c2ncnc3c2C(C)CC3O)CC1)c1ccc(Cl)cc1` (centres undefined) + C=CC(=O)N1CCN(c2nc(OCC3CCCN3C)nc3c2CCN(c2cccc4cccc(C)c24)C3)CC1CC#N as the molecule, how does the IC50 (second compound 0.00949 µM) read?
The IC50 was > 10000 nM.

What about the IC50 (second compound 0.03 µM) of the same molecule?
The IC50 was > 10000 nM.

What about the IC50 (second compound 0.0949 µM) of the same molecule?
Its IC50 is > 10000 nM.

And the IC50 (second compound 0.3 µM)?
The IC50 was 6170 nM.

And the IC50 (second compound 0.949 µM)?
The IC50 was > 10000 nM.

What about the IC50 (second compound 3 µM) of the same molecule?
Its IC50 is > 10000 nM.

And the viability, T/C [1]?
Its viability, T/C is 102%.

What about the viability, T/C [2] of the same molecule?
Its viability, T/C is 92.3%.

What about the viability, T/C (second compound 0.00949 µM, first compound 0.316 µM) of the same molecule?
The viability, T/C was 98.8%.

What about the viability, T/C (second compound 0.00949 µM, first compound 1 µM) of the same molecule?
The viability, T/C was 66.7%.

And the viability, T/C (second compound 0.00949 µM, first compound 3.16 µM)?
The viability, T/C was 67.7%.

What about the viability, T/C (second compound 0.00949 µM, first compound 10 µM) of the same molecule?
Its viability, T/C is 57.2%.

What about the viability, T/C [3] of the same molecule?
Its viability, T/C is 85.8%.

And the viability, T/C [4]?
Its viability, T/C is 91.8%.

And the viability, T/C (second compound 0.03 µM, first compound 0.316 µM)?
The viability, T/C was 94.8%.

And the viability, T/C (second compound 0.03 µM, first compound 1 µM)?
The viability, T/C was 61.3%.

What about the viability, T/C (second compound 0.03 µM, first compound 3.16 µM) of the same molecule?
The viability, T/C was 65.4%.

And the viability, T/C (second compound 0.03 µM, first compound 10 µM)?
The viability, T/C was 46.1%.

What about the viability, T/C [5] of the same molecule?
Its viability, T/C is 95.4%.

What about the viability, T/C [6] of the same molecule?
The viability, T/C was 97.5%.

And the viability, T/C (second compound 0.0949 µM, first compound 0.316 µM)?
The viability, T/C was 78.2%.

And the viability, T/C (second compound 0.0949 µM, first compound 1 µM)?
Its viability, T/C is 79.8%.

What about the viability, T/C (second compound 0.0949 µM, first compound 3.16 µM) of the same molecule?
The viability, T/C was 53.4%.

And the viability, T/C (second compound 0.0949 µM, first compound 10 µM)?
Its viability, T/C is 57.4%.

What about the viability, T/C [7] of the same molecule?
The viability, T/C was 77.7%.

What about the viability, T/C [8] of the same molecule?
The viability, T/C was 84.8%.

What about the viability, T/C (second compound 0.3 µM, first compound 0.316 µM) of the same molecule?
The viability, T/C was 84%.

And the viability, T/C (second compound 0.3 µM, first compound 1 µM)?
The viability, T/C was 71.8%.

What about the viability, T/C (second compound 0.3 µM, first compound 3.16 µM) of the same molecule?
The viability, T/C was 56.4%.

What about the viability, T/C (second compound 0.3 µM, first compound 10 µM) of the same molecule?
The viability, T/C was 45.6%.

And the viability, T/C [9]?
The viability, T/C was 67.4%.

And the viability, T/C [10]?
Its viability, T/C is 82.2%.

And the viability, T/C (second compound 0.949 µM, first compound 0.316 µM)?
The viability, T/C was 68.6%.

And the viability, T/C (second compound 0.949 µM, first compound 1 µM)?
The viability, T/C was 58%.

What about the viability, T/C (second compound 0.949 µM, first compound 3.16 µM) of the same molecule?
Its viability, T/C is 57.8%.

What about the viability, T/C (second compound 0.949 µM, first compound 10 µM) of the same molecule?
Its viability, T/C is 56%.

And the viability, T/C [11]?
The viability, T/C was 83.4%.

And the viability, T/C [12]?
The viability, T/C was 74.5%.

What about the viability, T/C (second compound 3 µM, first compound 0.316 µM) of the same molecule?
The viability, T/C was 81.2%.

And the viability, T/C (second compound 3 µM, first compound 1 µM)?
Its viability, T/C is 68.5%.

And the viability, T/C (second compound 3 µM, first compound 3.16 µM)?
The viability, T/C was 49.3%.

And the viability, T/C (second compound 3 µM, first compound 10 µM)?
Its viability, T/C is 51.9%.

For `CC(C)n1nc(-c2ccc3oc(N)nc3c2)c2c(N)ncnc21` + C=CC(=O)N1CCN(c2nc(OCC3CCCN3C)nc3c2CCN(c2cccc4cccc(C)c24)C3)CC1CC#N, which IC50 (second compound 0.00949 µM) is on record?
The IC50 was 6.33 nM.

And the IC50 (second compound 0.03 µM)?
Its IC50 is 6.8 nM.

What about the IC50 (second compound 0.0949 µM) of the same molecule?
The IC50 was 4.34 nM.

And the IC50 (second compound 0.3 µM)?
Its IC50 is 3.35 nM.

What about the IC50 (second compound 0.949 µM) of the same molecule?
Its IC50 is 0.512 nM.

What about the IC50 (second compound 3 µM) of the same molecule?
Its IC50 is 22.2 nM.

What about the viability, T/C (second compound 0.00949 µM, first compound 0.000316 µM) of the same molecule?
The viability, T/C was 80.6%.

What about the viability, T/C (second compound 0.00949 µM, first compound 0.001 µM) of the same molecule?
Its viability, T/C is 64.1%.

What about the viability, T/C (second compound 0.00949 µM, first compound 0.00316 µM) of the same molecule?
The viability, T/C was 56.1%.

What about the viability, T/C (second compound 0.00949 µM, first compound 0.01 µM) of the same molecule?
Its viability, T/C is 43.1%.

And the viability, T/C [1]?
Its viability, T/C is 48.3%.

And the viability, T/C [2]?
Its viability, T/C is 39.8%.

What about the viability, T/C (second compound 0.03 µM, first compound 0.000316 µM) of the same molecule?
Its viability, T/C is 69.5%.

And the viability, T/C (second compound 0.03 µM, first compound 0.001 µM)?
Its viability, T/C is 65.7%.

And the viability, T/C (second compound 0.03 µM, first compound 0.00316 µM)?
The viability, T/C was 44.1%.

What about the viability, T/C (second compound 0.03 µM, first compound 0.01 µM) of the same molecule?
Its viability, T/C is 54.1%.

And the viability, T/C [3]?
The viability, T/C was 46.8%.

What about the viability, T/C [4] of the same molecule?
Its viability, T/C is 42%.

What about the viability, T/C (second compound 0.0949 µM, first compound 0.000316 µM) of the same molecule?
Its viability, T/C is 80.1%.

And the viability, T/C (second compound 0.0949 µM, first compound 0.001 µM)?
The viability, T/C was 64.7%.

And the viability, T/C (second compound 0.0949 µM, first compound 0.00316 µM)?
Its viability, T/C is 48.4%.

What about the viability, T/C (second compound 0.0949 µM, first compound 0.01 µM) of the same molecule?
The viability, T/C was 49%.

And the viability, T/C [5]?
Its viability, T/C is 41.1%.

What about the viability, T/C [6] of the same molecule?
The viability, T/C was 40.8%.

And the viability, T/C (second compound 0.3 µM, first compound 0.000316 µM)?
Its viability, T/C is 59.7%.

What about the viability, T/C (second compound 0.3 µM, first compound 0.001 µM) of the same molecule?
The viability, T/C was 67.6%.

And the viability, T/C (second compound 0.3 µM, first compound 0.00316 µM)?
The viability, T/C was 50.5%.

And the viability, T/C (second compound 0.3 µM, first compound 0.01 µM)?
The viability, T/C was 43.5%.

What about the viability, T/C [7] of the same molecule?
Its viability, T/C is 40.5%.

What about the viability, T/C [8] of the same molecule?
The viability, T/C was 36%.

And the viability, T/C (second compound 0.949 µM, first compound 0.000316 µM)?
Its viability, T/C is 57.5%.

What about the viability, T/C (second compound 0.949 µM, first compound 0.001 µM) of the same molecule?
The viability, T/C was 47.5%.

What about the viability, T/C (second compound 0.949 µM, first compound 0.00316 µM) of the same molecule?
The viability, T/C was 42.7%.

And the viability, T/C (second compound 0.949 µM, first compound 0.01 µM)?
Its viability, T/C is 34.5%.

And the viability, T/C [9]?
The viability, T/C was 44.6%.

What about the viability, T/C [10] of the same molecule?
The viability, T/C was 44.3%.

What about the viability, T/C (second compound 3 µM, first compound 0.000316 µM) of the same molecule?
Its viability, T/C is 62.5%.

What about the viability, T/C (second compound 3 µM, first compound 0.001 µM) of the same molecule?
Its viability, T/C is 66.8%.

What about the viability, T/C (second compound 3 µM, first compound 0.00316 µM) of the same molecule?
The viability, T/C was 54.1%.

What about the viability, T/C (second compound 3 µM, first compound 0.01 µM) of the same molecule?
The viability, T/C was 58.6%.

What about the viability, T/C [11] of the same molecule?
The viability, T/C was 45.3%.

And the viability, T/C [12]?
Its viability, T/C is 40.7%.
